Experimental data as given in ChEMBL document CHEMBL3046671, “Molecular design, synthesis and biological activities of amidines as new ketol-acid reductoisomerase inhibitors” (Chin Chem Lett, 2008).
Structures can show the parent of a compound that is named as a salt. Active and inactive are the calls of the source. The rule behind the calls is not given here.

Experiments:
[1] = target: Ketol-acid reductoisomerase, chloroplastic (Oryza sativa subsp. japonica, UniProt Q65XK0); experiment: Inhibition of Oryza sativa KARI (rice)
Echinochloa crus-galli [2] = experiment: Herbicidal activity against Echinochloa crus-galli (barnyard grass) assessed as inhibition at 100 ug/ml by barnyardgrass cup test; type: functional
Echinochloa crus-galli [3] = experiment: Herbicidal activity against Echinochloa crus-galli (barnyard grass) assessed as inhibition at 10 ug/ml by barnyardgrass cup test; type: functional
Brassica napus [4] = experiment: Herbicidal activity against Brassica napus (oilseed rape) assessed as inhibition at 100 ug/ml by rape toot test; type: functional
Brassica napus [5] = experiment: Herbicidal activity against Brassica napus (oilseed rape) assessed as inhibition at 10 ug/ml by rape toot test; type: functional
[6] = target: T1, Ketol-acid reductoisomerase (NADP(+)) (Escherichia coli (strain K12), UniProt P05793); experiment: Inhibition of Escherichia coli KARI
T1 sequence (P05793 whole entry): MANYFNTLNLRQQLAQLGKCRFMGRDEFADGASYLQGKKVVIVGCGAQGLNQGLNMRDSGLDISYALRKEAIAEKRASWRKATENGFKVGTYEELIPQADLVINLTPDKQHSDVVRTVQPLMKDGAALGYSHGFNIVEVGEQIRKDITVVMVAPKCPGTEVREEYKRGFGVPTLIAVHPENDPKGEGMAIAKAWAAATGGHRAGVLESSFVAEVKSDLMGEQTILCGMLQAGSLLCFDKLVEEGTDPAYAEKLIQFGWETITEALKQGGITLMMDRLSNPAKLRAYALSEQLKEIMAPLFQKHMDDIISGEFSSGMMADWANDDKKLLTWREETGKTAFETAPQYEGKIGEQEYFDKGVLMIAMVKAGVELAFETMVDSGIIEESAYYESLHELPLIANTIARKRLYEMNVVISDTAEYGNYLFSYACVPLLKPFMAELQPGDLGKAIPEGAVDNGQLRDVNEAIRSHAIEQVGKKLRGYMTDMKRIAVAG

Chain of Ketol-acid reductoisomerase, chloroplastic (Q65XK0 whole entry): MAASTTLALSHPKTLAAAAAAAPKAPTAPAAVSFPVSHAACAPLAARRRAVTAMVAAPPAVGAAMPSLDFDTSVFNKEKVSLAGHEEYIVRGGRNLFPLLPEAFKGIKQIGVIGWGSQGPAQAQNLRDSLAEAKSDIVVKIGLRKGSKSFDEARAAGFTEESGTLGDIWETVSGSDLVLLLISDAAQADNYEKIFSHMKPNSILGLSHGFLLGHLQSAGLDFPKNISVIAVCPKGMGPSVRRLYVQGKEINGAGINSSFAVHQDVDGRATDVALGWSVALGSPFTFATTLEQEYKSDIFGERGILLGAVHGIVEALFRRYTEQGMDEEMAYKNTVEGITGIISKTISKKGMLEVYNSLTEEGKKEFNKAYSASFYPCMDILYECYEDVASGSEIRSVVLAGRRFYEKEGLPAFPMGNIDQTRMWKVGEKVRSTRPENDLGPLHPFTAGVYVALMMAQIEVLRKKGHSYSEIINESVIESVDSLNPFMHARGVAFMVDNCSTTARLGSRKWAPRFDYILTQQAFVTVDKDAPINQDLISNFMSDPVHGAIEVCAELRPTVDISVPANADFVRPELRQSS

| Structure (SMILES) | Ki [1] | inhibition at 100 µg/mL (Echinochloa crus-galli [2]) | inhibition at 10 µg/mL (Echinochloa crus-galli [3]) | inhibition at 100 µg/mL (Brassica napus [4]) | inhibition at 10 µg/mL (Brassica napus [5]) | inhibition (Echinochloa crus-galli [3]) | Ki [6] |
| --- | --- | --- | --- | --- | --- | --- | --- |
| CCCCOc1ccc(C(=N)N)cc1 [4-BUTOXYBENZIMIDAMIDE HYDROCHLORIDE] | 3530 µM |  |  |  |  |  |  |
| N=C(N)c1ccc(OCc2ccc(Cl)cc2)cc1 | 411 µM |  |  |  |  |  |  |
| CCCCCCCOc1ccc(C(=N)N)cc1 [4-(HEPTYLOXY)BENZIMIDAMIDE HYDROCHLORIDE] | 61 µM | 53% | 20.1% | 96.3% | 30.1% |  |  |
| CCOc1ccc(C(=N)N)cc1 [4-ETHOXYBENZIMIDAMIDE HYDROCHLORIDE] | > 1900 µM | 24.4% |  | 57.1% | 18.5% | inactive |  |
| N=C(N)c1ccc(OCc2ccccc2F)cc1 | 965 µM |  |  |  |  |  |  |
| CCCCCCOc1ccc(C(=N)N)cc1 [4-(HEXYLOXY)BENZIMIDAMIDE HYDROCHLORIDE] | 190 µM | 52.1% | 5.3% | 94% | 20.4% |  |  |
| COc1ccc(C(=N)N)cc1 [4-METHOXYBENZIMIDAMIDE HYDROCHLORIDE] | > 2080 µM | 18.3% | 16.2% | 48.5% | 6.9% |  |  |
| N=C(N)c1ccc(OCc2ccccn2)cc1 | > 649 µM |  |  |  |  |  |  |
| N=C(N)c1ccc(OCCCCCOc2ccc(C(=N)N)cc2)cc1 [PENTAMIDINE ISETHIONATE] | 350 µM | 59.6% | 12.6% | 90.9% | 22.9% |  | 382 µM |
| N=C(N)c1ccc(OCc2ccccc2)cc1 [4-(BENZYLOXY)BENZIMIDAMIDE HYDROCHLORIDE] | > 1380 µM |  |  |  |  |  |  |
| CCCOc1ccc(C(=N)N)cc1 [4-PROPOXYBENZIMIDAMIDE HYDROCHLORIDE] | > 1670 µM |  |  |  |  |  |  |
| CCCCCOc1ccc(C(=N)N)cc1 [4-(PENTYLOXY)BENZIMIDAMIDE HYDROCHLORIDE] | 1360 µM |  |  |  |  |  |  |
| N=C(N)c1ccc(OCc2cccc(Cl)c2)cc1 | 213 µM | 56.8% | 21.5% | 95.2% | 31.9% |  |  |
| C=CCOc1ccc(C(=N)N)cc1 [4-(ALLYLOXY)BENZIMIDAMIDE HYDROCHLORIDE] | > 1710 µM |  |  |  |  |  |  |
| N=C(N)c1ccc(OCc2ccc(Cl)cc2Cl)cc1 | 142 µM | 62.8% | 21.8% | 95.6% | 33.7% |  |  |
| CC(C)Oc1ccc(C(=N)N)cc1 [4-ISOPROPOXYBENZIMIDAMIDE HYDROCHLORIDE] | > 1670 µM |  |  |  |  |  |  |
